Measurements as given in ChEMBL document CHEMBL5584305, “Cladoic Acid, an Anti-Trypanosoma cruzi Polyketide from Cladosporium sp. TP-F2020” (J Nat Prod, 2024).
Calls of active or inactive are those of the source. The calls are words filed in the database; no cut-off is given here.

How the values were obtained:
Kocuria rhizophila = assay: Antimicrobial activity against Kocuria rhizophila ATCC 9341 at 100 microg/ml incubated for 20 hrs by liquid microculture method; type: functional, organism-based; settings: dose 100.0 µg/ml
Staphylococcus aureus = assay: Antimicrobial activity against Staphylococcus aureus FDA209P JC-1 at 100 microg/ml incubated for 20 hrs by liquid microculture method; type: functional, organism-based; settings: dose 100.0 µg/ml
Escherichia coli = assay: Antimicrobial activity against Escherichia coli NIHJ JC-2 at 100 microg/ml incubated for 20 hrs by liquid microculture method; type: functional, organism-based; settings: dose 100.0 µg/ml
[1] = test system: Agrobacterium radiobacter; assay: Antimicrobial activity against Rhizobium radiobacter NBRC14554 at 100 microg/ml incubated for 20 hrs by liquid microculture method; type: functional, organism-based; settings: dose 100.0 µg/ml
Candida albicans = assay: Antimicrobial activity against Candida albicans NBRC0197 at 100 microg/ml incubated for 20 hrs by liquid microculture method; type: functional, organism-based; settings: dose 100.0 µg/ml
[2] = test system: Colletotrichum gloeosporioides; assay: Antimicrobial activity against Glomerella cingulata NBRC5907 at 100 microg/ml incubated for 20 hrs by liquid microculture method; type: functional, organism-based; settings: dose 100.0 µg/ml
Trichophyton rubrum = assay: Antimicrobial activity against Trichophyton rubrum NBRC5467 at 100 microg/ml incubated for 20 hrs by liquid microculture method; type: functional, organism-based; settings: dose 100.0 µg/ml
Saccharomyces cerevisiae = assay: Antimicrobial activity against Saccharomyces cerevisiae S100 at 100 microg/ml incubated for 20 hrs by liquid microculture method; type: functional, organism-based; settings: dose 100.0 µg/ml
[3] = Cytotoxicity against mouse P388 cells at 100 uM; type: toxicity, cell-based
Trypanosoma cruzi [4] = assay: Antitrypanosomal activity against Trypanosoma cruzi epimastigote assessed as inhibition of proliferation by measuring cellular ATP level incubated for 24 hrs by Cell Titer-Glo 2.0 assay; type: functional, organism-based
Trypanosoma cruzi [5] = assay: Antitrypanosomal activity against Trypanosoma cruzi Tulahuen amastigotes infected in human HT-1080 cells assessed as inhibition of parasite growth incubated for 3 days by light microscopic analysis; type: functional, organism-based; settings: HT-1080, 72 h

With C\C(=C/C=C/C=C/[C@H]1[C@@H](C)[C@H](O)[C@@H](O)[C@H]2[C@H](O)[C@@H](C)C[C@@H](C)[C@H]12)C(=O)O as the compound, how does the Activity (Kocuria rhizophila) read?
The Activity was “inactive”.

And the Activity (Staphylococcus aureus)?
The Activity was “inactive”.

And the Activity (Escherichia coli)?
Its Activity is “inactive”.

And the Activity [1]?
Its Activity is “inactive”.

What about the Activity (Candida albicans) of the same compound?
Its Activity is “inactive”.

And the Activity [2]?
The Activity was “inactive”.

And the Activity (Trichophyton rubrum)?
Its Activity is “inactive”.

And the Activity (Saccharomyces cerevisiae)?
The Activity was “inactive”.

And the Activity [3]?
The Activity was “Non-Toxic”.

And the IC50 (Trypanosoma cruzi [4])?
The IC50 was 46 µM.

And the IC50 (Trypanosoma cruzi [5])?
The IC50 was 27 µM.
